Data reported in ChEMBL document CHEMBL3797159, “The discovery and the structural basis of an imidazo[4,5-b]pyridine-based p21-activated kinase 4 inhibitor” (Bioorg Med Chem Lett, 2016).
Activity calls are given as the source filed them. No cut-off for these calls is given here.

Legend:
[1] = biological target: T1, Serine/threonine-protein kinase PAK 4 (Homo sapiens, UniProt O96013); assay: Binding affinity to recombinant human N-terminal His6-tagged PAK4 kinase domain (300 to 591 residues) expressed in Escherichia coli BL21(DE3) cells at 50 uM by circular dichroism analysis
Target sequence in this assay (O96013 whole entry, looked up, the tested form may be a part): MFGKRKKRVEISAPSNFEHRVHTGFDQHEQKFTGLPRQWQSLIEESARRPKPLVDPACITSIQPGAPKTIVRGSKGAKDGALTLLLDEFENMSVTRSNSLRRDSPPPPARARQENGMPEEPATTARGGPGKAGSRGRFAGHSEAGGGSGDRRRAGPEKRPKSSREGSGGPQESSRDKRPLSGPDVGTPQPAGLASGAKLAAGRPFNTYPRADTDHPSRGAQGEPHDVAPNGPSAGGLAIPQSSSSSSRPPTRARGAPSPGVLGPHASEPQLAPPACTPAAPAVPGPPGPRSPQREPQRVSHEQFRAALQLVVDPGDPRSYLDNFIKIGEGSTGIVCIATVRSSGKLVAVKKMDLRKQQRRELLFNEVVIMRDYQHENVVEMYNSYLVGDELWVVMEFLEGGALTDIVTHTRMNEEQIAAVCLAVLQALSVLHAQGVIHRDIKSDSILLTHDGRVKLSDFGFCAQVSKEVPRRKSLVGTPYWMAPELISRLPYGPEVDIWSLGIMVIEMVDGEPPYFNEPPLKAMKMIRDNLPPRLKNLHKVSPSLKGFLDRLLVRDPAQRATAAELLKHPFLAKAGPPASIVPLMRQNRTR

[2] = biological target: T1, Serine/threonine-protein kinase PAK 4; conditions: 50 uM
Target sequence in this assay (O96013 whole entry, looked up, the tested form may be a part): as above
Description: Binding affinity to PAK4 (unknown origin) assessed as change in melting temperature at 50 uM by circular dichroism analysis

[3] = Solubility of compound; format: physicochemical
[4] = biological target: CDK4/Cyclin D3 (Homo sapiens) (UniProt P11802+P30281); assay: Inhibition of human recombinant CDK4/Cyclin D3 expressed in sf21 cells using Rb (773 to 928 residues) as substrate by radiometric assay in presence of gamma[32P]ATP
[5] = biological target: T2, Dual specificity tyrosine-phosphorylation-regulated kinase 2 (Homo sapiens) (UniProt Q92630); assay: Inhibition of human DYRK2 by radiometric assay
T2 sequence (whole entry): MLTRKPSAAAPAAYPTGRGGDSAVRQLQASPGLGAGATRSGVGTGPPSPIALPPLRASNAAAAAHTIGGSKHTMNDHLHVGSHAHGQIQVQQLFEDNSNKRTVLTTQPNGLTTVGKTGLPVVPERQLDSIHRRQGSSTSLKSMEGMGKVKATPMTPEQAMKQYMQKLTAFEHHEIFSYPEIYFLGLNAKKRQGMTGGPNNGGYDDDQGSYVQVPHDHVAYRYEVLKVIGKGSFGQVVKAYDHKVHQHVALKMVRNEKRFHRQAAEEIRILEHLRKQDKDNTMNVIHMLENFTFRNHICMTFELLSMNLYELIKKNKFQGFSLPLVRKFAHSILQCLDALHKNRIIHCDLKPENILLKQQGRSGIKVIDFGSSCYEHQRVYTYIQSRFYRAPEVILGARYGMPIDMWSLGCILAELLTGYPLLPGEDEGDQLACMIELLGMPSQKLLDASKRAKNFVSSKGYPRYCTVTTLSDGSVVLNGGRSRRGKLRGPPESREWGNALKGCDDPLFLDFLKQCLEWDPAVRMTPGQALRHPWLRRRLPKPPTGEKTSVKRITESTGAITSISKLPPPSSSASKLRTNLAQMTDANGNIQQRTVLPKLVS

[6] = biological target: T1, Serine/threonine-protein kinase PAK 4; assay: Inhibition of human PAK4 using myelin basic protein as substrate incubated for 40 mins by scintillation counting method in presence of gamma[33P]ATP
Target sequence in this assay (O96013 whole entry, the tested form may be a part): as the sequence (O96013 whole entry, looked up, the tested form may be a part) above

[7] = biological target: Aurora kinase B (Homo sapiens) (UniProt Q96GD4); assay: Inhibition of human recombinant Aurora-B expressed in sf9 cells using kemptide as substrate by radiometric assay in presence of gamma[32P]ATP
[8] = biological target: DNA-dependent protein kinase catalytic subunit (Homo sapiens) (UniProt P78527); assay: Inhibition of human DNA-PK by radiometric assay
[9] = biological target: T3, Aurora kinase C (Homo sapiens) (UniProt Q9UQB9); assay: Inhibition of human Aurora-C by radiometric assay
T3 sequence (whole entry): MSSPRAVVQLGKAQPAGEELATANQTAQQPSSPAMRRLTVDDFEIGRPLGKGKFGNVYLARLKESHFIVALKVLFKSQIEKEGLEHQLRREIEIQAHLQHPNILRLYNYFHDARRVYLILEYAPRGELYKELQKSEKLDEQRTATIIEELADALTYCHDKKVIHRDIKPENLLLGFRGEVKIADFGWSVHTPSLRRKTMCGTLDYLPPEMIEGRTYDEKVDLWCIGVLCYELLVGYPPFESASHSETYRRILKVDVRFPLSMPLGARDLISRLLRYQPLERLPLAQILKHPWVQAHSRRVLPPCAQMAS

Sequence of Aurora kinase B (Homo sapiens) (Q96GD4 whole entry): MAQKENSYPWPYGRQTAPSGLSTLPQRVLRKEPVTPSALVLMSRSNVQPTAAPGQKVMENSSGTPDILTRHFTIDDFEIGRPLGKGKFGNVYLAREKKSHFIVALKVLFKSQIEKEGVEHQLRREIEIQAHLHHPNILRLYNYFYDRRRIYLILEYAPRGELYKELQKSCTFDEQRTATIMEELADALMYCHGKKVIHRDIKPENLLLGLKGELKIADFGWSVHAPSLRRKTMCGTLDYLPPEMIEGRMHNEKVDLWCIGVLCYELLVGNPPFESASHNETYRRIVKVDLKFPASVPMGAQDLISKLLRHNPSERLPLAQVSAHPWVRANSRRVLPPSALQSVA
Sequence of DNA-dependent protein kinase catalytic subunit (Homo sapiens) (P78527 whole entry): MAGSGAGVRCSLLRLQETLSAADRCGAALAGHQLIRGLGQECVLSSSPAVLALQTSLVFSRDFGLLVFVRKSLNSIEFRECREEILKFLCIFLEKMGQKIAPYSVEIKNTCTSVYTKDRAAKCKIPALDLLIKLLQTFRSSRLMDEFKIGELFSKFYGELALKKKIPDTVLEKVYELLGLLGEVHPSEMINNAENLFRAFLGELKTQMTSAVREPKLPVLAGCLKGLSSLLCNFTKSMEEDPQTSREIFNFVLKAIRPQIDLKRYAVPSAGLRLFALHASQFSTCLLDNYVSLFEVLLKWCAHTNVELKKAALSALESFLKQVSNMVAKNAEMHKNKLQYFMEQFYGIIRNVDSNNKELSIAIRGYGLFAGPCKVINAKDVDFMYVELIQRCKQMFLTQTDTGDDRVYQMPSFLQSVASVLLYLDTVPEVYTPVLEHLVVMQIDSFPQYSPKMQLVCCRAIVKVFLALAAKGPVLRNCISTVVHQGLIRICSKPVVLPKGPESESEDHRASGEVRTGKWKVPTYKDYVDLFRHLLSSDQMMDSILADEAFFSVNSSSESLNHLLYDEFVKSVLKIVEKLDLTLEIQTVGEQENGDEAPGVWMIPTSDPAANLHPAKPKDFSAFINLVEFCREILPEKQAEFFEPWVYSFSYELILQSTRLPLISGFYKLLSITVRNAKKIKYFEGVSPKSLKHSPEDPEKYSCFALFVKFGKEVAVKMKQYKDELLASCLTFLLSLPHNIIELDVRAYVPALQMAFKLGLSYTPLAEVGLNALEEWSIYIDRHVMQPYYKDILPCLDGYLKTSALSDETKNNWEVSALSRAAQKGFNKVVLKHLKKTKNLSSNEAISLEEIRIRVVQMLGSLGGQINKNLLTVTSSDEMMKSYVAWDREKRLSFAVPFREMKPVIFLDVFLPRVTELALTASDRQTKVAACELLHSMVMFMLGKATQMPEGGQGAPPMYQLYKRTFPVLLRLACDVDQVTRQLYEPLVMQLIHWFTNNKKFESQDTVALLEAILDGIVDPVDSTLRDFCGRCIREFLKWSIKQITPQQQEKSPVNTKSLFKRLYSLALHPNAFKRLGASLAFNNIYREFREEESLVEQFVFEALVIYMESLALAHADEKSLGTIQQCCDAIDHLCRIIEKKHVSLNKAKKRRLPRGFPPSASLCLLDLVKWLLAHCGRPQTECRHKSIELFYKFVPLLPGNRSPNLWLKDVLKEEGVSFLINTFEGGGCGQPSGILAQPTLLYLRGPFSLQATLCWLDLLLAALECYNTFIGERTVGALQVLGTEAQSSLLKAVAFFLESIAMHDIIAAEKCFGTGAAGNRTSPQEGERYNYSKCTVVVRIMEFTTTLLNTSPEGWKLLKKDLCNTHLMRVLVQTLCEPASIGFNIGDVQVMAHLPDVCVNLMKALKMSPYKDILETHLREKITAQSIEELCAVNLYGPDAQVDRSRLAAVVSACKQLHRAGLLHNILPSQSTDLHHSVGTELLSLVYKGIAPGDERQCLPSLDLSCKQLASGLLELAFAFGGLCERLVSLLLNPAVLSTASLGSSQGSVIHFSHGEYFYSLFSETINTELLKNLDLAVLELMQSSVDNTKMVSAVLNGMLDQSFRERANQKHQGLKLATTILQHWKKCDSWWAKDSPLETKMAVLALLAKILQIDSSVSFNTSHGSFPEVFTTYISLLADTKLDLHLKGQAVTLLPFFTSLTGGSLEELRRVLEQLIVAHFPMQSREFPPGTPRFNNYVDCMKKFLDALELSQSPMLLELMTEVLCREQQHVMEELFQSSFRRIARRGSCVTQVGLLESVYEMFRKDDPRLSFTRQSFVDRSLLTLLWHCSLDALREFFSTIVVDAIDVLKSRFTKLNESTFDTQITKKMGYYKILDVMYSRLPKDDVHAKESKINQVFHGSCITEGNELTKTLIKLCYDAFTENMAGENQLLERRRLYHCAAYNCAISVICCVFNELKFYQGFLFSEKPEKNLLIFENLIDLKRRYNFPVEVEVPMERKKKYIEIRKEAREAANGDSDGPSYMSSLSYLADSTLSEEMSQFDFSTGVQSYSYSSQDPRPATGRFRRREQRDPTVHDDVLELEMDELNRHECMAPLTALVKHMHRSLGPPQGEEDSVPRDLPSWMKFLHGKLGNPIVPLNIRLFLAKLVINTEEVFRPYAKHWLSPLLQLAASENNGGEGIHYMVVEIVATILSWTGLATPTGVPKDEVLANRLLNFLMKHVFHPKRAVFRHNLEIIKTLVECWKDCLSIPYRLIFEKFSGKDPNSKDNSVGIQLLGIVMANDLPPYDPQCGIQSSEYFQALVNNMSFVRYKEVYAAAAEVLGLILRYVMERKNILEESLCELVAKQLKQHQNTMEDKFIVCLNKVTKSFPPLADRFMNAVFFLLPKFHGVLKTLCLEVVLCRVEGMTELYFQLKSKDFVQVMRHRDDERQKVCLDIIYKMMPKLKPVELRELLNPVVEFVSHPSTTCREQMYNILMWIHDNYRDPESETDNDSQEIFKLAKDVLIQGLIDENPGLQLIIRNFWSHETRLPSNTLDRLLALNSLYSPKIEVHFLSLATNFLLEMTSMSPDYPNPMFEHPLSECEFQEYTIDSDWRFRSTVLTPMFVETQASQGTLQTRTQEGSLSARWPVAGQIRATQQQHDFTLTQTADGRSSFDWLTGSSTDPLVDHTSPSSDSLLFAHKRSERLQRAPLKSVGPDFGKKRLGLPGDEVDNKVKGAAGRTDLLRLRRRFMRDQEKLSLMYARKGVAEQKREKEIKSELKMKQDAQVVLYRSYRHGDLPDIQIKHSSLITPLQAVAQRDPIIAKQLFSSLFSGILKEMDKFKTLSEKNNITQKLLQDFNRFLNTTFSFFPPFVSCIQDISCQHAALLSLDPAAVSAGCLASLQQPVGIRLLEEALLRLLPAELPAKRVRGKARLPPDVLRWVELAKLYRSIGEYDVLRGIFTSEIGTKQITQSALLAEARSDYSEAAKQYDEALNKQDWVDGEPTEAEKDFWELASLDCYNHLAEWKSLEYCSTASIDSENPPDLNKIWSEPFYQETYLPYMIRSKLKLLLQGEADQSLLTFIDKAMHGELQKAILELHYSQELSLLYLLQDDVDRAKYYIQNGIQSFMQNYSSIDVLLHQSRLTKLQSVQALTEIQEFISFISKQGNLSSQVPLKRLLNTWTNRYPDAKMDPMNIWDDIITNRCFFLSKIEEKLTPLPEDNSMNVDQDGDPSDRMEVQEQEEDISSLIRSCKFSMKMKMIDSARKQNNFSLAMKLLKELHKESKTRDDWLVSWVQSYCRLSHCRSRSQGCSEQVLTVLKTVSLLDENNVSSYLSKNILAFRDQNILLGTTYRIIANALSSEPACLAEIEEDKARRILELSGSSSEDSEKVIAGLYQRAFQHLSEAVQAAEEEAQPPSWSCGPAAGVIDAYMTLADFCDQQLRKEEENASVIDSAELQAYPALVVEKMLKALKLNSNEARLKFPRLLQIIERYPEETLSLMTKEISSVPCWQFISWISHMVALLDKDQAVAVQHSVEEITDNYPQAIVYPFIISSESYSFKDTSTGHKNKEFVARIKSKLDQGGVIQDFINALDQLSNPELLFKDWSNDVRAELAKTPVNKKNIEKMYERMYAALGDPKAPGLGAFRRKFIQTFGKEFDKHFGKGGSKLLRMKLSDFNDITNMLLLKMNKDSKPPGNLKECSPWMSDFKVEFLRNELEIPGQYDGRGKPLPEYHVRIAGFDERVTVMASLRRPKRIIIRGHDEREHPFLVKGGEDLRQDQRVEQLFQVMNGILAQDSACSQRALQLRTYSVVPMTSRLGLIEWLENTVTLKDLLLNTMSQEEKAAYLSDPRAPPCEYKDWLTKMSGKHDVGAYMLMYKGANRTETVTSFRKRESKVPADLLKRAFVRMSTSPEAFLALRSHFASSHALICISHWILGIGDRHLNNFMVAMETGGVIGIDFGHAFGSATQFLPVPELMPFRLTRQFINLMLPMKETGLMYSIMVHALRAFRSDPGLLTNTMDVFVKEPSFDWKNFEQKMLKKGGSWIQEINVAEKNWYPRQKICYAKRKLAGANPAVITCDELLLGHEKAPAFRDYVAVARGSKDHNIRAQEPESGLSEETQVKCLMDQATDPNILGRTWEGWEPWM

| ΔTm [1] [°C] | Tm [2] [°C] | solubility [3] [µM] | inhibition [4] | inhibition [5] | IC50 [6] [µM] | inhibition [7] | inhibition [8] | inhibition [9] | SMILES |
| --- | --- | --- | --- | --- | --- | --- | --- | --- | --- |
| 6 |  |  |  |  |  |  |  |  | COc1nc(NCCc2c[nH]c3ccccc23)nc(Nc2ccc3[nH]ncc3c2)n1 |
| 16 |  |  |  |  |  |  |  |  | Cc1nc(Nc2n[nH]c3c2CN(C(=O)N[C@H](CN(C)C)c2ccccc2)C3(C)C)c2sccc2n1 |
|  | 48 | < 100 | inactive | inactive | 8.7 | Active | inactive | Active | CC(C)c1nn(C)cc1-c1nc2cc(Br)cnc2[nH]1 |
